Assay results reported in the supplement of paper PMC10307832.

Columns and labels:
Assay in all cases: relative viability (nuclei count vs DMSO), 5 days (fraction); higher = more cells survive
[1] = tested on: ABC-1
Method in brief: (§1)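 One day after seeding in 1536-well plates, lung cancer cell lines were dosed by pin tool. Dosing was either single-drug or a fixed anchor-drug dose plus five library-drug doses (not always all listed) in √10 steps. After 5 days, nuclei were stained in one fix-and-stain step and counted on 4× images, and relative viability is the nuclei count of treated wells over that of vehicle wells, given as the median of duplicate plates.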

[2] = tested on: BEN
Method in brief: as §1

[3] = tested on: CAL-12T
Method in brief: as §1

[4] = tested on: EKVX
Method in brief: as §1

[5] = tested on: EMC-BAC-2
Method in brief: as §1

[6] = tested on: EPLC-272H
Method in brief: as §1

[7] = tested on: HCC-827
Method in brief: as §1

[8] = tested on: LCLC-97TM1
Method in brief: as §1

[9] = tested on: LK-2
Method in brief: as §1

[10] = tested on: LOU-NH91
Method in brief: as §1

[11] = tested on: NCI-H1395
Method in brief: as §1

[12] = tested on: NCI-H1437
Method in brief: as §1

[13] = tested on: NCI-H1650
Method in brief: as §1

[14] = tested on: NCI-H1755
Method in brief: as §1

[15] = tested on: NCI-H2009
Method in brief: as §1

[16] = tested on: NCI-H2023
Method in brief: as §1

[17] = tested on: NCI-H2170
Method in brief: as §1

[18] = tested on: NCI-H522
Method in brief: as §1

[19] = tested on: NCI-H596
Method in brief: as §1

[20] = tested on: NCI-H727
Method in brief: as §1

[21] = tested on: PC-14
Method in brief: as §1

[22] = tested on: SK-LU-1
Method in brief: as §1

[23] = tested on: SW 900
Method in brief: as §1

[24] = tested on: UMC-11
Method in brief: as §1

Q: Which results are given for Nc1cccc2c1CN(C1CCC(=O)NC1=O)C2=O (configuration not stated) [Lenalidomide] + CCNC(=O)c1noc(-c2cc(C(C)C)c(O)cc2O)c1-c1ccc(CN2CCOCC2)cc1 [Luminespib] (partner 0.01 µM)?
A: relative viability ([1]; first compound 0.253 µM): 0.908; relative viability ([1]; first compound 2.53 µM): 0.684; relative viability ([1]; first compound 8 µM): 0.517; relative viability ([2]; first compound 0.253 µM): 0.427; relative viability ([2]; first compound 0.8 µM): 0.233; relative viability ([2]; first compound 2.53 µM): 0.607; relative viability ([2]; first compound 8 µM): 0.246; relative viability ([3]; first compound 0.253 µM): 0.341; relative viability ([3]; first compound 0.8 µM): 0.245; relative viability ([3]; first compound 2.53 µM): 0.259; relative viability ([3]; first compound 8 µM): 0.479; relative viability ([4]; first compound 0.253 µM): 0.807; relative viability ([4]; first compound 0.8 µM): 0.84; relative viability ([4]; first compound 2.53 µM): 0.955; relative viability ([4]; first compound 8 µM): 0.801; relative viability ([5]; first compound 0.253 µM): 1.22; relative viability ([5]; first compound 0.8 µM): 1.1; relative viability ([5]; first compound 2.53 µM): 1.23; relative viability ([5]; first compound 8 µM): 1.11; relative viability ([6]; first compound 0.253 µM): 0.341; relative viability ([6]; first compound 0.8 µM): 0.259; relative viability ([6]; first compound 2.53 µM): 0.276; relative viability ([6]; first compound 8 µM): 0.204; relative viability ([7]; first compound 0.253 µM): 0.661; relative viability ([7]; first compound 0.8 µM): 0.803; relative viability ([7]; first compound 2.53 µM): 0.838; relative viability ([7]; first compound 8 µM): 0.59; relative viability ([8]; first compound 0.253 µM): 0.763; relative viability ([8]; first compound 0.8 µM): 0.707; relative viability ([8]; first compound 2.53 µM): 0.848; relative viability ([8]; first compound 8 µM): 0.761; relative viability ([9]; first compound 0.253 µM): 0.195; relative viability ([9]; first compound 0.8 µM): 0.179; relative viability ([9]; first compound 2.53 µM): 0.173; relative viability ([9]; first compound 8 µM): 0.193; relative viability ([10]; first compound 0.253 µM): 0.343; relative viability ([10]; first compound 0.8 µM): 0.343; relative viability ([10]; first compound 2.53 µM): 0.313; relative viability ([10]; first compound 8 µM): 0.283; relative viability ([11]; first compound 0.253 µM): 0.796; relative viability ([11]; first compound 0.8 µM): 0.72; relative viability ([11]; first compound 2.53 µM): 0.855; relative viability ([11]; first compound 8 µM): 0.615; relative viability ([12]; first compound 0.253 µM): 1.19; relative viability ([12]; first compound 0.8 µM): 1.08; relative viability ([12]; first compound 2.53 µM): 1.11; relative viability ([12]; first compound 8 µM): 1.23; relative viability ([13]; first compound 0.8 µM): 0.197; relative viability ([13]; first compound 2.53 µM): 0.196; relative viability ([13]; first compound 8 µM): 0.202; relative viability ([14]; first compound 0.253 µM): 0.422; relative viability ([14]; first compound 0.8 µM): 0.42; relative viability ([14]; first compound 2.53 µM): 0.596; relative viability ([14]; first compound 8 µM): 0.655; relative viability ([15]; first compound 0.253 µM): 1.04; relative viability ([15]; first compound 0.8 µM): 0.99; relative viability ([15]; first compound 2.53 µM): 1.09; relative viability ([15]; first compound 8 µM): 1.11; relative viability ([16]; first compound 0.253 µM): 0.869; relative viability ([16]; first compound 0.8 µM): 0.915; relative viability ([16]; first compound 2.53 µM): 0.685; relative viability ([16]; first compound 8 µM): 0.824; relative viability ([17]; first compound 0.253 µM): 0.683; relative viability ([17]; first compound 0.8 µM): 0.799; relative viability ([17]; first compound 2.53 µM): 0.588; relative viability ([17]; first compound 8 µM): 0.426; relative viability ([18]; first compound 0.253 µM): 1.32; relative viability ([18]; first compound 0.8 µM): 1.79; relative viability ([18]; first compound 2.53 µM): 1.28; relative viability ([18]; first compound 8 µM): 1.17; relative viability ([19]; first compound 0.253 µM): 0.967; relative viability ([19]; first compound 2.53 µM): 1.29; relative viability ([19]; first compound 8 µM): 0.985; relative viability ([20]; first compound 0.253 µM): 0.45; relative viability ([20]; first compound 0.8 µM): 0.316; relative viability ([20]; first compound 2.53 µM): 0.473; relative viability ([20]; first compound 8 µM): 0.477; relative viability ([21]; first compound 0.253 µM): 0.152; relative viability ([21]; first compound 0.8 µM): 0.191; relative viability ([21]; first compound 2.53 µM): 0.151; relative viability ([21]; first compound 8 µM): 0.133; relative viability ([22]; first compound 0.253 µM): 0.177; relative viability ([22]; first compound 0.8 µM): 0.218; relative viability ([22]; first compound 2.53 µM): 0.198; relative viability ([22]; first compound 8 µM): 0.226; relative viability ([23]; first compound 0.253 µM): 0.195; relative viability ([23]; first compound 2.53 µM): 0.189; relative viability ([23]; first compound 8 µM): 0.183; relative viability ([24]; first compound 0.253 µM): 1.02; relative viability ([24]; first compound 0.8 µM): 1.03; relative viability ([24]; first compound 2.53 µM): 1.04; relative viability ([24]; first compound 8 µM): 0.953
